Molecular target: Tyrosine-protein kinase BTK (Homo sapiens, UniProt Q06187)
Experiment: To each well of a black non-binding surface Corning 384-well microplate (Corning Catalog #3820), 5 nL of compound (2000 fold dilution in final assay volume of 10 μL) was dispensed, followed by the addition of 7.5 μL of 1× kinase buffer (50 mM Hepes 7.5, 10 mM MgCl2, 0.01% Brij-35, 1 mM EGTA, 0.05% BSA & 1 mM DTT) containing 5.09 pg/μL (66.67 pM) of BTK enzyme (recombinant protein from baculovirus-transfected Sf9 cells: full-length BTK, 6HIS-tag cleaved). Following a 60 minute compound & enzyme incubation, each reaction was initiated by the addition of 2.5 μL 1× kinase buffer containing 8 μM biotinylated A5 peptide (Biotin-EQEDEPEGDYFEWLE-NH2), and 100 μM ATP. The final reaction in each well of 10 μL consists of 50 pM hBTK, 2 μM biotin-A5-peptide, and 25 μM ATP. Phosphorylation reactions were allowed to proceed for 120 minutes. Reactions were immediately quenched by the addition of 20 uL of 1× quench buffer (15 mM EDTA, 25 mM Hepes 7.3, and 0.1% Triton X-100) containing detection reagents (0.626 nM of LANCE-Eu-W1024-anti-phosphoTyrosine antibody, PerkinElmer and 86.8 nM of Streptavidin-conjugated Dylight 650, Dyomics/ThermoFisher Scientific). After 60 minutes incubation with detection reagents, reaction plates were read on a PerkinElmer EnVision plate reader using standard TR-FRET protocol. Briefly, excitation of donor molecules (Eu-chelate:anti-phospho-antibody) with a laser light source at 337 nm produces energy that can be transferred to Dylight-650 acceptor molecules if this donor:acceptor pair is within close proximity. Fluorescence intensity at both 665 nm (acceptor) and 615 nm (donor) are measured and a TR-FRET ratio calculated for each well (acceptor intensity/donor intensity).

Sequence of Tyrosine-protein kinase BTK (Q06187 whole entry): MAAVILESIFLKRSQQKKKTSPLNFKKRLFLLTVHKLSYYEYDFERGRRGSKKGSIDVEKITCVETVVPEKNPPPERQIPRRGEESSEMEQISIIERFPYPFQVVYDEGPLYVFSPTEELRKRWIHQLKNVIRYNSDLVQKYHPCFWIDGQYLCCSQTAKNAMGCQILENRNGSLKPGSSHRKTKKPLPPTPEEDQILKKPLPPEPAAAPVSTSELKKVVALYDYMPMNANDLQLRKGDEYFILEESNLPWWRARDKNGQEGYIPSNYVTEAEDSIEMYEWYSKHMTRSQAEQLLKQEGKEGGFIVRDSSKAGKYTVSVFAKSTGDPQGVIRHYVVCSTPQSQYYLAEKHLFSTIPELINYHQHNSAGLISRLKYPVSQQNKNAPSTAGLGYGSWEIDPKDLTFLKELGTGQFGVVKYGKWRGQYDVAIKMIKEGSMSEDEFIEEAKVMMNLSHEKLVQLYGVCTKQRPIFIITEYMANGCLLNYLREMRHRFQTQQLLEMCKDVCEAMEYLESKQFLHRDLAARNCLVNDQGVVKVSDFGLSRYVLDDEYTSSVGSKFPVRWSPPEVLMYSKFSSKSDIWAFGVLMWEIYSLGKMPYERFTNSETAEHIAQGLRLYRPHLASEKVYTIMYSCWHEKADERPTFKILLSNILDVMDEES

Row | Compound | IC50 [nM]
1 | CCC(=O)N1CCC[C@@H](c2nn(-c3ccc(Oc4ccccc4)cc3)c3c(N)nccc23)C1 | 2
2 | COCCC(=O)N1CCC[C@@H](c2nn(-c3ccc(Oc4ccccc4)cc3)c3c(N)nccc23)C1 | 1.8
3 | Nc1nccc2c([C@@H]3CCCN(C(=O)C4CC(F)(F)C4)C3)nn(-c3ccc(Oc4ccccc4)cc3)c12 | 8.9
4 | CO[C@H](C)C(=O)N1CCC[C@@H](c2nn(-c3ccc(Oc4ccccc4)cc3)c3c(N)nccc23)C1 | 5.5
5 | Nc1nccc2c([C@@H]3CCCN(C(=O)C4CC4)C3)nn(-c3ccc(Oc4ccccc4)cc3)c12 | 3.3
6 | Nc1nccc2c([C@@H]3CCCN(C(=O)C4(O)CC4)C3)nn(-c3ccc(Oc4ccccc4)cc3)c12 | 3
7 | COCC(=O)N1CCC[C@@H](c2nn(-c3ccc(Oc4ccccc4)cc3)c3c(N)nccc23)C1 | 2.7
8 | Cc1ncn(C)c1C(=O)N1CCC[C@@H](c2nn(-c3ccc(Oc4ccccc4)cc3)c3c(N)nccc23)C1 | 9.2
9 | C=CC(=O)N1CCC[C@@H](c2nn(-c3ccc(Oc4ccccc4)cc3)c3c(N)nccc23)C1 | 0.66
10 | Nc1nccc2c([C@@H]3CCCN(C(=O)C4CCC4)C3)nn(-c3ccc(Oc4ccccc4)cc3)c12 | 3.5
11 | C[C@@H](O)C(=O)N1CCC[C@@H](c2nn(-c3ccc(Oc4ccccc4)cc3)c3c(N)nccc23)C1 | 1
12 | COCCOCC(=O)N1CCC[C@@H](c2nn(-c3ccc(Oc4ccccc4)cc3)c3c(N)nccc23)C1 | 3.5
13 | CC1(C(=O)N2CCC[C@@H](c3nn(-c4ccc(Oc5ccccc5)cc4)c4c(N)nccc34)C2)CC1 | 3.3
14 | Cc1noc(C)c1C(=O)N1CCC[C@@H](c2nn(-c3ccc(Oc4ccccc4)cc3)c3c(N)nccc23)C1 | 13.7
15 | Nc1nccc2c([C@@H]3CCCNC3)nn(-c3ccc(Oc4ccccc4)cc3)c12 | 30.8
16 | CO[C@@H](C)C(=O)N1CCC[C@@H](c2nn(-c3ccc(Oc4ccccc4)cc3)c3c(N)nccc23)C1 | 3.9
17 | CC(=O)N1CCC[C@@H](c2nn(-c3ccc(Oc4ccccc4)cc3)c3c(N)nccc23)C1 | 2
18 | CC(C)C(=O)N1CCC[C@@H](c2nn(-c3ccc(Oc4ccccc4)cc3)c3c(N)nccc23)C1 | 3.7
19 | CC#CC(=O)N1CCC[C@@H](c2nn(-c3ccc(Oc4ccccc4)cc3)c3c(N)nccc23)C1 | 1
20 | Cn1cncc1C(=O)N1CCC[C@@H](c2nn(-c3ccc(Oc4ccccc4)cc3)c3c(N)nccc23)C1 | 2.7
21 | C[C@H](O)C(=O)N1CCC[C@@H](c2nn(-c3ccc(Oc4ccccc4)cc3)c3c(N)nccc23)C1 | 2.3
22 | N#CC1(C(=O)N2CCC[C@@H](c3nn(-c4ccc(Oc5ccccc5)cc4)c4c(N)nccc34)C2)CC1 | 11.8
23 | CCOCC(=O)N1CCC[C@@H](c2nn(-c3ccc(Oc4ccccc4)cc3)c3c(N)nccc23)C1 | 3.5

Source: ChEMBL document CHEMBL5726231, “Btk inhibitors” (2017)
